This note sets out measurements from ChEMBL document CHEMBL3217473, “Discovery of a structurally novel, drug-like and potent inhibitor of peptidylarginine deiminase” (Medchemcomm, 2013).

Active and inactive are the calls of the source. The rule behind the calls is not given here.

Data set [1] has as its system HEK-293T. Briefly: Inhibition of thapsigargin-induced cell death in human HEK293T cells overexpressing human recombinant PAD3 assessed as increase in cell survival at 100 uM treated 15 mins prior to thapsigargin addition measured after 24 hrs drug treatment by methylene blue assay. It counts as functional, cell-based.
Data set [2] relates to NSC. Briefly: Inhibition of thapsigargin-induced cell death in human NSC assessed as increase in cell survival at >10 uM treated 15 mins prior to thapsigargin addition measured after 24 hrs drug treatment by methylene blue assay. The format is functional, cell-based.
Data set [3] relates to NSC. The data set is described as follows: Inhibition of thapsigargin-induced cell death in human NSC assessed as cell survival at <=1 uM treated 15 mins prior to thapsigargin addition measured after 24 hrs drug treatment by methylene blue assay. It counts as functional, cell-based.
The target of data set [4] is T1, Protein-arginine deiminase type-3 (Homo sapiens) (UniProt Q9ULW8).
T1 sequence (whole entry): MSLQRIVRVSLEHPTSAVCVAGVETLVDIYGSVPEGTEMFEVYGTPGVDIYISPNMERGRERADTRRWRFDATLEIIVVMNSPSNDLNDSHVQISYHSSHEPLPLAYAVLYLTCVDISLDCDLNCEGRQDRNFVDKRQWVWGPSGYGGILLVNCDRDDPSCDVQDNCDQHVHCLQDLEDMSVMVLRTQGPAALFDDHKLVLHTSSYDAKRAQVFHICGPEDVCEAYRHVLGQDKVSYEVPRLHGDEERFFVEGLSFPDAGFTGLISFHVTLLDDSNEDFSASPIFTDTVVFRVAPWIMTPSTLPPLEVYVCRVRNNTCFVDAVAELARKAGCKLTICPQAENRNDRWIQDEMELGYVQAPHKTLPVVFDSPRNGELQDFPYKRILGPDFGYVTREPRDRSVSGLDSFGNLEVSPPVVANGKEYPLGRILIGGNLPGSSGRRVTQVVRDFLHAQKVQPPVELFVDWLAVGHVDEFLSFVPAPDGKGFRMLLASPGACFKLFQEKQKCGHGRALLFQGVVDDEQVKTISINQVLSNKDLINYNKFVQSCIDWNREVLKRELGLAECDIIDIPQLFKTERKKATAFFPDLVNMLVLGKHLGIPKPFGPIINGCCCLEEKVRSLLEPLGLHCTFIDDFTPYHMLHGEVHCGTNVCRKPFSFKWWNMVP
Briefly: Competitive reversible inhibition of human recombinant PAD3 expressed in HEK293T cells assessed as rate of citrullination of BAEE at 10 to 100 uM by Michaelis-Menten equation analysis using colorimetry. Particulars: HEK-293T. It counts as cell-based.

The target of data set [5] is T1, Protein-arginine deiminase type-3 (Homo sapiens). The data set is described as follows: Inhibition of human recombinant PAD3 expressed in HEK293T cells assessed as conversion of BAEE to sodium benzoyl-L-citrulline up to 1 mM by colorimetric analysis. The format is cell-based. Particulars: HEK-293T.
Data set [6] has the same target. Briefly: Inhibition of human recombinant PAD3 expressed in HEK293T cells assessed as conversion of BAEE to sodium benzoyl-L-citrulline at 100 uM by colorimetric analysis. Particulars: HEK-293T. It counts as cell-based.
In data set [7] the test system is HEK-293T. Briefly: Inhibition of thapsigargin-induced cell death in human HEK293T cells overexpressing human recombinant PAD3 assessed as increase in cell survival at 10 uM treated 15 mins prior to thapsigargin addition measured after 24 hrs drug treatment by methylene blue assay. It counts as functional, cell-based.
Data set [8] relates to NSC. Briefly: Cytotoxicity against human NSC assessed as decrease in cell survival at 0.1 to 1000 uM after 24 hrs by methylene blue assay. The format is cell-based.
The subject of data set [9] is NSC. The data set is described as follows: Inhibition of thapsigargin-induced cell death in human NSC assessed as increase in cell survival up to 1 mM treated 15 mins prior to thapsigargin addition measured after 24 hrs drug treatment by methylene blue assay. The format is functional, cell-based.
Data set [10] deals with NSC. Briefly: Inhibition of thapsigargin-induced cell death in human NSC assessed as increase in cell survival at 100 nM treated 15 mins prior to thapsigargin addition measured after 24 hrs drug treatment by methylene blue assay. The format is functional, cell-based.

For `N=C(CCl)NCCC[C@H](NC(=O)c1ccccc1)C(N)=O`, the inhibition result in data set [1] and in [2] was “Active” each time. Also, the inhibition entry in data set [3] is “inactive”.

On to `O=C1CN=C(NCCc2c[nH]c3ccccc23)N1`, for which the inhibition entry in data set [4], in data set [5], in [6], in [7], in data set [9] and in data set [10] was “Active” in each case. Also, in data set [8], the Activity entry is on record as “Non-toxic”.
